# Test results taken from US20120101136A1, “5-MEMBERED HETEROARYL DERIVATIVES USED AS SPHINGOSINE 1- PHOSPHATE RECEPTOR AGONISTS” (GLAXO GROUP LIMITED, priority 2009, published 2012).
# Molecular target: T1, S1P1 receptor (human Endothelial Differentiation Gene 1 (EDG1)) (Homo sapiens, UniProt P21453)
# T1 construct: TEV protease site; Gal4-VP16 transcription factor; expressed in transfected cells; host or cells: Tango GPCR-bla U2OS parental cell line (EDG1-bla/U2OS)
# Test: S1P1 Tango Assay - 384 Well Format (EDG1-bla/U2OS cells)
# Format: cell-based
# Settings: agonist, beta-lactamase reporter
# Method: Recombinant EDG1-bla/U2OS cells (contain the human Endothelial Differentiation Gene 1 (EDG1) linked to a TEV protease site and a Gal4-VP16 transcription factor stably integrated into the Tango GPCR-bla U2OS parental cell line) were harvested from growth medium and passaged into assay medium (Invitrogen Freestyle Expression Medium). The cells were starved for 24 hours at 37° C., 5% CO2, harvested and resuspended in assay medium at a density of ˜200,000 cells/ml.
# All test compounds were dissolved in DMSO at a concentration of 10 mM and were prepared in 100% DMSO to provide 10 point dose response curves. Test compounds prepared by Bravo (Velocity 11) were added to wells in columns 2-11 and 13-22; DMSO was added to wells in columns 12 and 23 as unstimulated controls and assay medium was added to wells in columns 1 and 24 as cell-free controls. An S1P1 agonist was added to wells in row 2, columns 2-11 as stimulated controls and test compounds were added to wells in row 2, columns 13-22 and rows 3-15, columns 2-11/13-22 (row 1 and 16 were empty and not used). Compounds in solution were added to the assay plate (Greiner 781090) using an Echo (Labcyte) dose-response program (50 nl/well). The unstimulated and cell-free controls were loaded with 50 nl/well pure DMSO to ensure that the DMSO concentration was constant across the plate for all assays.
# 50 μl of the cell suspension was added to each well in columns 2-23 of the plate (˜10,000 cells per well). 50 μl of assay medium was added to each well in the cell-free controls (columns 1 and 24). The cells were incubated overnight at 37° C./5% CO2.
# 10 μl of 6× substrate mixture (LiveBLAzer™-FRET B/G substrate (CCF4-AM) Cat # K1096 from Invitrogen, Inc.) was added to each well using Bravo and the plates incubated at room temperature for 2 h in the dark. The plate was finally read on EnVision using one excitation channel (409 nm) and two emission channels (460 nm and 530 nm).
# The blue/green emission ratio (460 nm/530 nm) was calculated for each well, by dividing the background-subtracted Blue emission values by the background-subtracted Green emission values. The dose response curve is based on sigmoidal dose-response model. All ratio data was normalized based upon the maximum emission ratio of positive control and minimum emission ratio of negative control (DMSO) on each plate. The intrinsic activity (IA) of each compound would be the normalized percentage of its maximum response after curve fitting.
# T1 sequence (P21453 whole entry, the tested form may be a part): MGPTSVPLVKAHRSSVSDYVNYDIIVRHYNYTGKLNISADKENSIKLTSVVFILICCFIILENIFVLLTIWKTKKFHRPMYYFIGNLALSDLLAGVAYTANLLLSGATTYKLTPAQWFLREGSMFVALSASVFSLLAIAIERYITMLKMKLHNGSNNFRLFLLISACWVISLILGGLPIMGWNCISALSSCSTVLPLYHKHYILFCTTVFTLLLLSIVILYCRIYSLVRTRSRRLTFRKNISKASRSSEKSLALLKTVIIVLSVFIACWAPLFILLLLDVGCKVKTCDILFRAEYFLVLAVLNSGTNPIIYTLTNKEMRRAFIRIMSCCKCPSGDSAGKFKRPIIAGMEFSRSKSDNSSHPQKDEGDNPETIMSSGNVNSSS
row,Structure (SMILES),EC50 [nM]
1,"Cc1cc(OCCCC(=O)O)ccc1-c1noc(-c2ccc(OC(C)C)c(Cl)c2)n1 [Example 1, 4-{[4-(5-{3-Chloro-4-[(1-methylethyl)oxy]phenyl}-1,2,4-oxadiazol-3-yl)-3-methylphenyl]oxy}butanoic acid]",≤ 0.1
2,"Cc1cc(OCCCCC(=O)O)ccc1-c1noc(-c2ccc(OC(C)C)c(Cl)c2)n1 [Example 2, 5-{[4-(5-{3-Chloro-4-[(1-methylethyl)oxy]phenyl}-1,2,4-oxadiazol-3-yl)-3-methylphenyl]oxy}pentanoic acid]",≤ 1
3,"Cc1cc(OCC(=O)O)ccc1-c1noc(-c2ccc(OC(C)C)c(Cl)c2)n1 [Example 3, {[4-(5-{3-Chloro-4-[(1-methylethyl)oxy]phenyl}-1,2,4-oxadiazol-3-yl)-3-methylphenyl]oxy}acetic acid]",≤ 1
4,"CNCCOc1ccc(-c2noc(-c3ccc(OC(C)C)c(Cl)c3)n2)c(C)c1 [Example 5, 2-{[4-(5-{3-Chloro-4-[(1-methylethyl)oxy]phenyl}-1,2,4-oxadiazol-3-yl)-3-methylphenyl]oxy}-N-methylethanamine]",≤ 10
5,"COCCOc1ccc(-c2noc(-c3ccc(OC(C)C)c(Cl)c3)n2)c(C)c1 [Example 6, 5-{3-Chloro-4-[(1-methylethyl)oxy]phenyl}-3-(2-methyl-4-{[2-(methyloxy)ethyl]oxy}phenyl)-1,2,4-oxadiazole]",≤ 10
6,"CC(C)Oc1ccc(-c2nc(-c3ccc(OCCCCC(=O)O)cc3Cl)no2)cc1C#N [Example 7, 5-{[3-Chloro-4-(5-{3-cyano-4-[(1-methylethyl)oxy]phenyl}-1,2,4-oxadiazol-3-yl)phenyl]oxy}pentanoic acid]",≤ 0.1
7,"CC(C)Oc1ccc(-c2nc(-c3ccc(OCCCCC(=O)O)cc3)no2)cc1C#N [Example 8, 5-{[4-(5-{3-Cyano-4-[(1-methylethyl)oxy]phenyl}-1,2,4-oxadiazol-3-yl)phenyl]oxy}pentanoic acid]",≤ 1
8,"CC(C)Oc1ccc(-c2nc(-c3ccc(OCC(=O)O)cc3Cl)no2)cc1C#N [Example 9, {[3-Chloro-4-(5-{3-cyano-4-[(1-methylethyl)oxy]phenyl}-1,2,4-oxadiazol-3-yl)phenyl]oxy}acetic acid]",≤ 10
9,"CC(C)Oc1ccc(-c2nc(-c3ccc(OCCCC(=O)O)cc3Cl)no2)cc1C#N [Example 10, 4-{[3-Chloro-4-(5-{3-cyano-4-[(1-methylethyl)oxy]phenyl}-1,2,4-oxadiazol-3-yl)phenyl]oxy}butanoic acid]",≤ 0.1
10,"CC(C)Oc1ccc(-c2nc(-c3ccc(OCCCCC(=O)O)cc3F)no2)cc1C#N [Example 11, 5-{[4-(5-{3-Cyano-4-[(1-methylethyl)oxy]phenyl}-1,2,4-oxadiazol-3-yl)-3-fluorophenyl]oxy}pentanoic acid]",≤ 1
11,"COc1cc(OCCCCC(=O)O)ccc1-c1noc(-c2ccc(OC(C)C)c(C#N)c2)n1 [Example 12, 5-{[4-(5-{3-Cyano-4-[(1-methylethyl)oxy]phenyl}-1,2,4-oxadiazol-3-yl)-3-(methyloxy)phenyl]oxy}pentanoic acid]",≤ 1
12,"CCc1cc(OCCCNC)ccc1-c1nnc(-c2ccc(OC(C)C)c(C#N)c2)s1 [Example 13, 5-[5-(2-ethyl-4-{[3-(methylamino)propyl]oxy}phenyl)-1,3,4-thiadiazol-2-yl]-2-[(1-methylethyl)oxy]benzonitrile]",≤ 1000
13,"CCc1cc(OCCCNC)ccc1-c1nnc(-c2ccc(OC(C)C)c(C#N)c2)o1 [Example 14, 5-[5-(2-ethyl-4-{[3-(methylamino)propyl]oxy}phenyl)-1,3,4-oxadiazol-2-yl]-2-[(1-methylethyl)oxy]benzonitrile]",≤ 100
14,"CCc1cc(OCCCC(=O)O)ccc1-c1nnc(-c2ccc(OC(C)C)c(C#N)c2)o1 [Example 15, 4-{[4-(5-{3-cyano-4-[(1-methylethyl)oxy]phenyl}-1,3,4-oxadiazol-2-yl)-3-ethylphenyl]oxy}butanoic acid]",≤ 1
15,"CCc1cc(OCCCC(=O)O)ccc1-c1nnc(-c2ccc(OC(C)C)c(C#N)c2)s1 [Example 16, 4-{[4-(5-{3-cyano-4-[(1-methylethyl)oxy]phenyl}-1,3,4-thiadiazol-2-yl)-3-ethylphenyl]oxy}butanoic acid]",≤ 1
16,"CC(C)Oc1ccc(-c2nc(-c3ccc(OCCCCN(C)C)cc3Cl)no2)cc1C#N [Example 17, 5-[3-(2-chloro-4-{[4-(dimethylamino)butyl]oxy}phenyl)-1,2,4-oxadiazol-5-yl]-2-[(1-methylethyl)oxy]benzonitrile]",≤ 10
17,"CC(C)NCCCCOc1ccc(-c2noc(-c3ccc(OC(C)C)c(C#N)c3)n2)c(Cl)c1 [Example 18, 5-{3-[2-chloro-4-({4-[(1-methylethyl)amino]butyl}oxy)phenyl]-1,2,4-oxadiazol-5-yl}-2-[(1-methylethyl)oxy]benzonitrile]",≤ 10
18,"CCCNCCCCOc1ccc(-c2noc(-c3ccc(OC(C)C)c(C#N)c3)n2)c(Cl)c1 [Example 19, 5-[3-(2-chloro-4-{[4-(propylamino)butyl]oxy}phenyl)-1,2,4-oxadiazol-5-yl]-2-[(1-methylethyl)oxy]benzonitrile]",≤ 10
19,"CCNCCCCOc1ccc(-c2noc(-c3ccc(OC(C)C)c(C#N)c3)n2)c(Cl)c1 [Example 20, 5-[3-(2-chloro-4-{[4-(ethylamino)butyl]oxy}phenyl)-1,2,4-oxadiazol-5-yl]-2-[(1-methylethyl)oxy]benzonitrile]",≤ 10
20,"CNCCCCOc1ccc(-c2noc(-c3ccc(OC(C)C)c(C#N)c3)n2)c(Cl)c1 [Example 21, 5-[3-(2-chloro-4-{[4-(methylamino)butyl]oxy}phenyl)-1,2,4-oxadiazol-5-yl]-2-[(1-methylethyl)oxy]benzonitrile]",≤ 1
21,"CC(C)Oc1ccc(-c2nc(-c3ccc(OCCCC(=O)O)cc3F)no2)cc1C#N [Example 22, 4-{[4-(5-{3-cyano-4-[(1-methylethyl)oxy]phenyl}-1,2,4-oxadiazol-3-yl)-3-fluorophenyl]oxy}butanoic acid]",≤ 0.1
22,"CC(C)Oc1ccc(-c2nc(-c3ccc(OCC(=O)O)cc3F)no2)cc1C#N [Example 23, {[4-(5-{3-cyano-4-[(1-methylethyl)oxy]phenyl}-1,2,4-oxadiazol-3-yl)-3-fluorophenyl]oxy}acetic acid]",≤ 100
23,"CC(C)Oc1ccc(-c2nc(-c3ccc(OCCCC(=O)O)cc3)no2)cc1C#N [Example 24, 4-{[4-(5-{3-cyano-4-[(1-methylethyl)oxy]phenyl}-1,2,4-oxadiazol-3-yl)phenyl]oxy}butanoic acid]",≤ 1
24,"CC(C)Oc1ccc(-c2nc(-c3ccc(OCC(=O)O)cc3)no2)cc1C#N [Example 25, {[4-(5-{3-cyano-4-[(1-methylethyl)oxy]phenyl}-1,2,4-oxadiazol-3-yl)phenyl]oxy}acetic acid]",≤ 100
25,"CCc1cc(OCCNC)ccc1-c1noc(-c2ccc(OC(C)C)c(Cl)c2)n1 [Example 26, (2-{[4-(5-{3-chloro-4-[(1-methylethyl)oxy]phenyl}-1,2,4-oxadiazol-3-yl)-3-ethylphenyl]oxy}ethyl)methylamine]",≤ 10
26,"CCc1cc(OCC(=O)O)ccc1-c1noc(-c2ccc(OC(C)C)c(C#N)c2)n1 [Example 27, {[4-(5-{3-cyano-4-[(1-methylethyl)oxy]phenyl}-1,2,4-oxadiazol-3-yl)-3-ethylphenyl]oxy}acetic acid]",≤ 1
